# What was measured:
# [1] = Triplet-state decay kinetics by laser flash photolysis; type: physicochemical; details: hexane solution, comparable experimental conditions
# Method: Measurement of Triplet-State Decay Kinetics in Hexakis-Substituted C60 Fullerene Derivatives. Decay kinetics of the triplet states for the hexakis-substituted C60 derivatives were measured by laser flash photolysis using a 308 nm laser pulse (10-20 mJ with a pulse width of 10 ns). A xenon lamp was used as the monitoring source. […] The test solutions were purged with bubbling argon gas for 15 minutes and then sealed from the atmosphere. Instantaneous generation of the triplet state was induced by laser pulse irradiation with subsequent monitoring between 650 and 770 nm, depending on the specific functional groups present in each hexakis-substituted C60 fullerene derivative.
# [2] = Photochemically-induced singlet oxygen production, furfuryl alcohol (FFA) degradation under BLB lamps; details: 50 μM derivative, 0.5 mM FFA
# Method: Photochemically-Induced Singlet Oxygen Production from Hexakis-Substituted C60 Fullerene Derivatives. Photochemical generation of singlet oxygen was performed using a magnetically stirred 60 mL cylindrical quartz reactor surrounded by six 4 W black light blue (BLB) lamps (emission wavelength region: 350-400 nm, Philips TL4W) at ambient temperature (22° C.). The incident light intensity was 3.79×10^−4 Einstein·min^−1L^−1. Reaction solutions containing 50 μM of hexakis-substituted C60 fullerene derivatives 1-4 and 0.5 mM furfuryl alcohol (FFA) as an indicator/reactant for singlet oxygen formed were buffered at pH=7 using 10 mM phosphate buffer. Thereafter, the solutions were exposed to the light source. As the photochemical reaction proceeded, 1 mL sample aliquots were periodically withdrawn from the reactor using a syringe, filtered through a 0.22 μm PTFE filter (Millipore), and injected into a 2 mL amber glass vial for further analysis. The residual FFA concentration was quantified using HPLC. […] Generation of singlet oxygen from commercially-available fullerol is presented for comparison purposes.
# Table 1 summarizes the initial degradation rate of FFA in the presence of hexakis-substituted C60 fullerene derivatives 1-4 in comparison to commercially available fullerol and Rose Bengal. Initial FFA degradation rates of hexakis-substituted C60 fullerene derivatives 1-4 in the presence of L-histidine and t-butanol are also presented for comparison. […] As shown by the FFA degradation rate, the singlet oxygen production of the C60 fullerene derivatives was greatest for hexakis-substituted C60 fullerene derivative 4 and smallest for hexakis-substituted C60 fullerene derivative 1.
Structure (SMILES),triplet state formation [1],"Initial FFA Degradation Rate, No Scavenger ([2]; pH 7, 10 mM phosphate buffer, BLB 350-400 nm, no scavenger)","Initial FFA Degradation Rate, L-Histidine Scavenger ([2]; pH 7, BLB 350-400 nm, excess L-histidine)","Initial FFA Degradation Rate, t-Butanol Scavenger ([2]; pH 7, BLB 350-400 nm, t-butanol)"
"c12c3c4c5c1c1c6c7c2c2c8c3c3c9c4c4c%10c5c5c1c1c6c6c%11c7c2c2c7c8c3c3c8c9c4c4c9c%10c5c5c1c1c6c6c%11c2c2c7c3c3c8c4c4c9c5c1c1c6c2c3c41 [C60, Buckminsterfullerene]",not detected,,,
O=C([O-])c1c(Cl)c(Cl)c(Cl)c(Cl)c1-c1c2cc(I)c(=O)c(I)c-2oc2c(I)c([O-])c(I)cc12.[Na+].[Na+] [Rose Bengal],,16.34 ± 0.29,0.07 ± 0.04,16.70 ± 0.47
